Measured values taken from patent US20090215650A1, “SUBSTRATES WITH STABLE SURFACE CHEMISTRY FOR BIOLOGICAL MEMBRANE ARRAYS AND METHOD FOR FABRICATING THEREOF” (priority 2002, published 2009).

Legend:
[1] = molecular target: Neurotensin receptor subtype I (human, NTR1) (Homo sapiens, UniProt P30989); test: BT-NT binding to NTR1 arrays on coated glass slides, competition with unlabeled neurotensin; conditions: 2 nM BT-NT; for binding specificity of BT-NT: competition with 4 μM unlabeled neurotensin
Sequence of Neurotensin receptor subtype I (human, NTR1) (P30989 whole entry): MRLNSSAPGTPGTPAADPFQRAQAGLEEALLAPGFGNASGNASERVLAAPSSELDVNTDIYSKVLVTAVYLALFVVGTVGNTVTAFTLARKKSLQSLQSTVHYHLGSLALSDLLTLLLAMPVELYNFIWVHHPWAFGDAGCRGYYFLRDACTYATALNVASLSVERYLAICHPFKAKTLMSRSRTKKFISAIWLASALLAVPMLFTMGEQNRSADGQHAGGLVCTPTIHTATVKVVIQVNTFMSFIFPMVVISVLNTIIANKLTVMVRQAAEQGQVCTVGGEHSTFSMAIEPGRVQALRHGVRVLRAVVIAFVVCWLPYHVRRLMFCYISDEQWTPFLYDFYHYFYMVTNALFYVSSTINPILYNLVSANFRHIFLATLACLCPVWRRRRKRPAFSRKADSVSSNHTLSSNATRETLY
Protocol: Neurotensin receptor subtype I (human, NTR1) was purchased from Perkin Elmer Life Sciences (Boston, Mass.) and was received as a membrane associated suspension in a buffer. Printing was carried out using a quill-pin printer (Cartesian Technologies Model PS 5000) equipped with software for programmable aspiration and dispensing. After printing the arrays were incubated in a humid chamber at room temperature for one hour, and then used for ligand binding experiments. Two different binding solutions, 2 nM BT-NT in binding buffer in either the absence or presence of neurotensin, were used to examine the total binding of fluorescently labeled neurotensin (2 nM BT-NT), and the specific inhibition of the binding of BT-NT in the presence of 4 μM unlabeled neurotensin. The binding buffer contained 50 mM Tris-HCl, pH 7.4, 10 mM MgCl2, 1 mM EDTA, 0.1% BSA. The incubation time for binding was one hour. After incubation, the slides were rinsed, dried, and examined using a Genipix scanner.
Glass slides were coated by incubating the slide with a 3 ml solution containing 1 mg/ml polymer (poly-lysine, 46 kDa, or polyethyleneimine, 50 kDa) in 0.1×PBS buffer for 30 minutes at room temperature, followed by rinsing with water and drying under nitrogen. […] Using a Telechem quill pin CMP5, we fabricated GPCR arrays.
Neurotensin receptor subtype 1 (human, NTR1) was purchased from Perkin Elmer Life Sciences (Boston, Mass.) and was received as a membrane associated suspension in a buffer. Printing was carried out using a quill-pin printer (Cartesian Technologies Model PS 5000) equipped with software for programmable aspiration and dispensing. After printing the arrays were incubated in a humid chamber at room temperature for one hour, and then used for ligand binding experiments. […] After incubation, the slides were rinsed, dried, and imaged in a fluorescence scanner. […]

streptavidin = streptavidin (Streptomyces avidinii, UniProt P22629); test: Binding of cy3-streptavidin to biotin-x-DHPE lipid arrays in presence of BSA; conditions: BSA 0.01%-1%; DPPC/DMPC/2% biotin-x-DHPE arrays on GAPS slide
Sequence of streptavidin (P22629 25-183, species assumed): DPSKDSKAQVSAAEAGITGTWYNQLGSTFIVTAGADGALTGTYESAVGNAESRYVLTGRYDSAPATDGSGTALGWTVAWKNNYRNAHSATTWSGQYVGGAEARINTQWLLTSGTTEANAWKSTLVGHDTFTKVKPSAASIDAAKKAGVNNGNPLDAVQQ
Protocol: Seven 5×5 arrays of DPPC/DMPC/2% biotin-x-DHPE were printed onto a single Corning GAPS slide (data not shown). After incubation 3 sets of lipid arrays were pre-incubated with TR-BSA before the addition of Cy3-streptavidin. A second set of 3 arrays was incubated with TR-BSA together with cy3-streptavidin, while one array was covered with a solution of cy3-streptavidin. After 30 minutes the slides were rinsed, dried and imaged. The cy5 channel signal was used to monitor the adsorption of TR-BSA, and the cy3 channel signal was used to monitor the binding of cy3-streptavidin.

[2] = two reactive surfaces (epoxy silane, thiol-silane)

Substance	binding specificity of BT-NT ([1]; poly-lysine and polyethyleneimine surfaces (both))	binding specificity of BT-NT [1, 2]	total binding signal [1, 2]	effect on background level (streptavidin)	effect on binding specificity of cy3-streptavidin (streptavidin)
Bodipy-TMR-neurotensin [BT-NT]	~90%	75-90%	relatively low		
bovine serum albumin [BSA]				reduces the background level in most cases	does not significantly decrease the binding specificity
